Experimental data published in patent US9493446B2, “Orexin receptor antagonists which are [ortho bi-(hetero-)aryl]-[2-(meta bi-(hetero-)aryl)-pyrrolidin-1-yl]-methanone derivatives” (Actelion Pharmaceuticals Ltd, priority 2012, dated 2016).
Read-outs that look alike come from different tables or passages of the source.

Key:
orexin-1 = orexin-1 (Homo sapiens (Human), UniProt O43613); assay: Intracellular calcium measurement (FLIPR), CHO cells expressing human orexin-1 receptor, 3 nM orexin-A; assay type: cell-based; conditions: read-out: IC50 OX1
Chain of orexin-1 (O43613 whole entry): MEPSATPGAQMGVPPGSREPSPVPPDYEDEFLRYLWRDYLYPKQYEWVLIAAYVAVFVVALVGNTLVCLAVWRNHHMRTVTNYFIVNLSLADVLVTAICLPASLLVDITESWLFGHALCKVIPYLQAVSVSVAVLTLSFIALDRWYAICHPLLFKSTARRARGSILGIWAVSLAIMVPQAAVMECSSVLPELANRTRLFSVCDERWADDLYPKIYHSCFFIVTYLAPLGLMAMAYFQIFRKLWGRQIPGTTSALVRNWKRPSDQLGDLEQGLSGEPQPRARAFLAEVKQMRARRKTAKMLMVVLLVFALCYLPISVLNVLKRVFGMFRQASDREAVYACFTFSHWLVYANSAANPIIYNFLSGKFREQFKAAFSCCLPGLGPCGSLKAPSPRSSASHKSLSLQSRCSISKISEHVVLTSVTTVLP
Method in brief: (§1)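 Fluo-4 AM-loaded CHO cells; antagonist preincubation 120 min, then 3 nM orexin-A (final) in HBSS/0.1% BSA/20 mM HEPES. FLIPR read at 1 s intervals; peak height vs. agonist-plus-vehicle control → IC50.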

human orexin-2 receptor = human orexin-2 receptor (Homo sapiens (Human), UniProt O43614); assay: Intracellular calcium measurement (FLIPR), CHO cells expressing human orexin-2 receptor, 3 nM orexin-A; assay type: cell-based; conditions: read-out: IC50 OX2
Chain of human orexin-2 receptor (O43614 whole entry): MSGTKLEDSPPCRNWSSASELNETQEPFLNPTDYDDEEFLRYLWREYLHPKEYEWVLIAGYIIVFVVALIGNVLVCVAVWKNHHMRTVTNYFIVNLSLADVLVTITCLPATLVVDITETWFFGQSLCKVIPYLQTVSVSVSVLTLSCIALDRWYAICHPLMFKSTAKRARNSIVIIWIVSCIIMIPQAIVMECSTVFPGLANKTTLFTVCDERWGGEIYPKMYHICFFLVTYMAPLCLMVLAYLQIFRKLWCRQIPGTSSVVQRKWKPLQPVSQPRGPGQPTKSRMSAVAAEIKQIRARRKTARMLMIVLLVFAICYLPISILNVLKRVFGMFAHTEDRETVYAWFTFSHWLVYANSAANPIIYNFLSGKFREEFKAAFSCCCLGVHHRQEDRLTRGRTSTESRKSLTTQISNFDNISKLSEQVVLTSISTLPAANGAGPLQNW
Method in brief: as §1

[1] = CHO cells expressing human orexin-1 receptor, FLIPR, 3 nM orexin-A, geometric mean if determined several times
[2] = CHO cells expressing human orexin-2 receptor, FLIPR, 3 nM orexin-A, geometric mean if determined several times

IC50 (orexin-1; [1]) [µM]	IC50 (human orexin-2 receptor; [2]) [µM]	Structure (SMILES)	IC50 (orexin-1) [µM]	IC50 (human orexin-2 receptor) [µM]
1.8	1.41	Cc1ccc(-n2nccn2)c(C(=O)N2CCC[C@H]2c2nnc(-c3ccccc3)o2)c1 [compound 439, (5-Methyl-2-[1,2,3]triazol-2-yl-phenyl)-[(S)-2-(5-phenyl-[1,3,4]oxadiazol-2-yl)-pyrrolidin-1-yl]-methanone]		
0.946	0.105	Cc1ccc(-n2nccn2)c(C(=O)N2CCC[C@H]2c2nnc(-c3ccccc3C)o2)c1 [compound 441, (5-Methyl-2-[1,2,3]triazol-2-yl-phenyl)-[(S)-2-(5-o-tolyl-[1,3,4]oxadiazol-2-yl)-pyrrolidin-1-yl]-methanone]		
0.184	0.118	Cc1ccc(-n2nccn2)c(C(=O)N2CCC[C@H]2c2nnc(-c3ccccc3OC(F)(F)F)o2)c1 [compound 442, (5-Methyl-2-[1,2,3]triazol-2-yl-phenyl)-{(S)-2-[5-(2-trifluoromethoxy-phenyl)-[1,3,4]oxadiazol-2-yl]-pyrrolidin-1-yl}-methanone]		
0.068	0.045	Cc1nc(C(=O)N2CCC[C@H]2c2nnc(-c3ccccc3OC(F)(F)F)o2)c(-c2cccc(F)c2)s1 [compound 443, [5-(3-Fluoro-phenyl)-2-methyl-thiazol-4-yl]-{(S)-2-[5-(2-trifluoromethoxy-phenyl)-[1,3,4]oxadiazol-2-yl]-pyrrolidin-1-yl}-methanone]		
0.083	0.06	Cc1nc(C(=O)N2CCC[C@H]2c2nnc(-c3ccccc3OC(F)(F)F)o2)c(-c2ccccc2F)s1 [compound 444, [5-(2-Fluoro-phenyl)-2-methyl-thiazol-4-yl]-{(S)-2-[5-(2-trifluoromethoxy-phenyl)-[1,3,4]oxadiazol-2-yl]-pyrrolidin-1-yl}-methanone]		
0.076	0.01	Cc1ccc(-n2nccn2)c(C(=O)N2CCC[C@H]2c2nnc(-c3ccccc3OC(F)(F)F)[nH]2)c1 [compound 465, (5-Methyl-2-[1,2,3]triazol-2-yl-phenyl)-{(S)-2-[5-(2-trifluoromethoxy-phenyl)-4H-[1,2,4]triazol-3-yl]-pyrrolidin-1-yl}-methanone]		
0.026	0.069	COc1ccccc1-c1nnc([C@@H]2CCCN2C(=O)c2cc(C)c(C)cc2-n2nccn2)[nH]1 [compound 466, (4,5-Dimethyl-2-[1,2,3]triazol-2-yl-phenyl)-{(S)-2-[5-(2-methoxy-phenyl)-4H-[1,2,4]triazol-3-yl]-pyrrolidin-1-yl}-methanone]		

Further lines, the molecule ahead of its results:

Structure (SMILES)	IC50 (orexin-1; [1]) [µM]	IC50 (human orexin-2 receptor; [2]) [µM]	IC50 (orexin-1) [µM]	IC50 (human orexin-2 receptor) [µM]
Cc1ccc(C(=O)N2CCC[C@H]2c2cc(-c3ccccc3OC(F)(F)F)on2)c(-n2nccn2)c1 [compound 435, (4-Methyl-2-[1,2,3]triazol-2-yl-phenyl)-{(S)-2-[5-(2-trifluoromethoxy-phenyl)-isoxazol-3-yl]-pyrrolidin-1-yl}-methanone]	0.035	0.031		
COc1cc(C(=O)N2CCC[C@H]2c2cc(-c3ccccc3OC(F)(F)F)on2)c(-n2nccn2)cc1C [compound 436, (5-Methoxy-4-methyl-2-[1,2,3]triazol-2-yl-phenyl)-{(S)-2-[5-(2-trifluoromethoxy-phenyl)-isoxazol-3-yl]-pyrrolidin-1-yl}-methanone]	0.049	0.013		
COc1cc(C(=O)N2CCC[C@H]2c2cc(-c3ccccc3OC(F)(F)F)on2)c(-n2nccn2)cc1Cl [compound 437]		0.015	0.062	
Cc1ccc(-n2nccn2)c(C(=O)N2CCC[C@H]2c2nnc(-c3cccc(Cl)c3C)o2)c1 [compound 440]	0.141	0.021		
COc1cc(C(=O)N2CCC[C@H]2c2nnc(-c3cccc(Cl)c3C)o2)c(-n2nccn2)cc1C [compound 445]	0.157			0.009
COc1cc(C(=O)N2CCC[C@H]2c2nnc(-c3cccc(Cl)c3C)o2)c(-n2nccn2)cc1Cl [compound 446]	0.082	0.006		
Cc1cc(C(=O)N2CCC[C@H]2c2nnc(-c3cccc(Cl)c3C)o2)c(-n2nccn2)cc1C [compound 447]	0.03	0.005		
